Where “and” joins values, the source holds several entries; their conditions need not be identical. Equal values may be shown once. Toxic doses and inconclusive results are not listed. Rule as the data show it: active = T/C of 150% or more; inactive = T/C below 125%.
Test system: L1210 leukemia ip in BDF1 mice, survival T/C
Assay: NCI In Vivo Anticancer Drug Screen. Data for tumor model L1210 Leukemia (intraperitoneal) in B6D2F1 (BDF1) mice
Conditions: endpoint: mean survival time, higher = longer survival
Summary of the method: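 Transplantable tumor model; survival measured in treated vs vehicle control mice. Value = treated/control.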

[1] = dose: 100.0 mg/kg/injection, schedule: Q01DX009 (ip), vehicle: saline with Tween-80
[2] = dose: 400.0 mg/kg/injection, schedule: Q01DX009 (ip), vehicle: saline with Tween-80
[3] = dose: 100.0 mg/kg/injection, schedule: Q04DX003 (ip), vehicle: saline
[4] = dose: 100.0 mg/kg/injection, schedule: Q04DX003 (ip), vehicle: saline with Tween-80
[5] = dose: 200.0 mg/kg/injection, schedule: Q04DX003 (ip), vehicle: saline with Tween-80
[6] = dose: 400.0 mg/kg/injection, schedule: Q04DX003 (ip), vehicle: saline with Tween-80
[7] = dose: 200.0 mg/kg/injection, schedule: Q01DX009 (ip), vehicle: saline with Tween-80

Measured: T/C

CCCCCCCCCCCCCCCCCCNC(=O)Nc1cc(C)ccc1C
inactive: dose: 100.0 mg/kg/injection, schedule: Q01DX009 (ip), vehicle: gum acacia 87 % of control | dose: 100.0 mg/kg/injection, schedule: Q04DX003 (ip), vehicle: gum acacia 92 % of control | dose: 200.0 mg/kg/injection, schedule: Q01DX009 (ip), vehicle: gum acacia 96 % of control | dose: 200.0 mg/kg/injection, schedule: Q04DX003 (ip), vehicle: gum acacia 92 % of control | dose: 400.0 mg/kg/injection, schedule: Q01DX009 (ip), vehicle: gum acacia 92 % of control | dose: 400.0 mg/kg/injection, schedule: Q04DX003 (ip), vehicle: gum acacia 87 % of control

C/C(Cc1ccccc1)=N\O
inactive: dose: 59.0 mg/kg/injection, schedule: Q01DX009 (ip), vehicle: saline with Tween-80 107 % of control | [1] 104 % of control | dose: 118.0 mg/kg/injection, schedule: Q01DX009 (ip), vehicle: saline with Tween-80 109 % of control | dose: 236.0 mg/kg/injection, schedule: Q01DX009 (ip), vehicle: saline with Tween-80 103 % of control | [2] 97 % of control

CC(C)(C)c1ccc(O)c([N+](=O)[O-])c1
inactive: dose: 25.0 mg/kg/injection, schedule: Q04DX002 (ip), vehicle: Klucel (hydroxypropylcellulose) (HPC) 86 % of control | dose: 50.0 mg/kg/injection, schedule: Q04DX002 (ip), vehicle: Klucel (hydroxypropylcellulose) (HPC) 86 % of control | dose: 100.0 mg/kg/injection, schedule: Q04DX002 (ip), vehicle: Klucel (hydroxypropylcellulose) (HPC) 102 % of control and 88 % of control

O=C(Nc1ccccc1O)C(O)C(O)C(O)C(O)CO (stereo not drawn)
inactive: [3] 87 % of control | dose: 200.0 mg/kg/injection, schedule: Q04DX003 (ip), vehicle: saline 97 % of control | dose: 400.0 mg/kg/injection, schedule: Q04DX003 (ip), vehicle: saline 91 % of control

Cc1ccc(-c2nnc3n2C(C)(C)N=C(N)N3)cc1
inactive: [4] 105 % of control | [5] 91 % of control | [6] 101 % of control

CC1(C)OCC2SC(n3cnc4c(N)ncnc43)C(O)C2O1 (stereo not drawn)
inactive: dose: 25.0 mg/kg/injection, schedule: Q01DX009 (ip), vehicle: saline 94 % of control | dose: 33.0 mg/kg/injection, schedule: Q01DX001 (ip), vehicle: carboxymethylcellulose (CMC) 97 % of control | dose: 50.0 mg/kg/injection, schedule: Q01DX009 (ip), vehicle: saline 98 % of control | dose: 66.5 mg/kg/injection, schedule: Q01DX001 (ip), vehicle: carboxymethylcellulose (CMC) 92 % of control | dose: 100.0 mg/kg/injection, schedule: Q01DX005 (ip), vehicle: saline 94 % of control and 97 % of control | dose: 100.0 mg/kg/injection, schedule: Q01DX009 (ip), vehicle: saline 98 % of control | dose: 133.0 mg/kg/injection, schedule: Q01DX001 (ip), vehicle: carboxymethylcellulose (CMC) 92 % of control | dose: 200.0 mg/kg/injection, schedule: Q01DX005 (ip), vehicle: saline 95 % of control

CC(/C=C/c1ccc(O)cc1)=N\O
inactive: [1] 89 % of control | [7] 100 % of control

CCN(C=O)c1ccc(NC=O)cc1
inactive: dose: 50.0 mg/kg/injection, schedule: Q01DX001 (ip), vehicle: saline with Tween-80 104 % of control | dose: 100.0 mg/kg/injection, schedule: Q01DX001 (ip), vehicle: saline with Tween-80 94 % of control and 100 % of control | dose: 100.0 mg/kg/injection, schedule: Q04DX002 (ip), vehicle: saline with Tween-80 103 % of control | [4] 97 % of control | dose: 200.0 mg/kg/injection, schedule: Q01DX001 (ip), vehicle: saline with Tween-80 94 % of control and 91 % of control | dose: 200.0 mg/kg/injection, schedule: Q04DX002 (ip), vehicle: saline with Tween-80 97 % of control | [5] 95 % of control and 91 % of control | dose: 400.0 mg/kg/injection, schedule: Q01DX001 (ip), vehicle: saline with Tween-80 94 % of control | dose: 400.0 mg/kg/injection, schedule: Q04DX002 (ip), vehicle: saline with Tween-80 101 % of control | [6] 103 % of control and 108 % of control

O=S1(=O)C(c2ccccc2)=Cc2cccn2-c2ccccc21
inactive: dose: 100.0 mg/kg/injection, schedule: Q04DX003 (ip), vehicle: Klucel (hydroxypropylcellulose) (HPC) 95 % of control | dose: 200.0 mg/kg/injection, schedule: Q04DX003 (ip), vehicle: Klucel (hydroxypropylcellulose) (HPC) 104 % of control | dose: 400.0 mg/kg/injection, schedule: Q04DX003 (ip), vehicle: Klucel (hydroxypropylcellulose) (HPC) 98 % of control

CC(C)=NC(=O)NO.[Cl][Zn][Cl]
inactive: dose: 15.0 mg/kg/injection, schedule: Q01DX001 (ip), vehicle: carboxymethylcellulose (CMC) 95 % of control | dose: 30.0 mg/kg/injection, schedule: Q01DX001 (ip), vehicle: carboxymethylcellulose (CMC) 89 % of control | dose: 60.0 mg/kg/injection, schedule: Q01DX001 (ip), vehicle: carboxymethylcellulose (CMC) 100 % of control

CN(C)Cc1ccc(Cl)cc1C(O)(c1ccccc1)c1ccccc1
inactive: dose: 50.0 mg/kg/injection, schedule: Q01DX001 (ip), vehicle: carboxymethylcellulose (CMC) 101 % of control | dose: 100.0 mg/kg/injection, schedule: Q01DX001 (ip), vehicle: carboxymethylcellulose (CMC) 104 % of control | dose: 200.0 mg/kg/injection, schedule: Q01DX001 (ip), vehicle: carboxymethylcellulose (CMC) 93 % of control | dose: 400.0 mg/kg/injection, schedule: Q01DX001 (ip), vehicle: carboxymethylcellulose (CMC) 93 % of control

C1C2CC3C1C1CN3C21 (stereo not drawn)
inactive: dose: 6.25 mg/kg/injection, schedule: Q01DX001 (ip), vehicle: saline 100 % of control | dose: 12.5 mg/kg/injection, schedule: Q01DX001 (ip), vehicle: saline 97 % of control | dose: 25.0 mg/kg/injection, schedule: Q01DX001 (ip), vehicle: saline 111 % of control

CC(C)c1nc(-c2ccccc2)c(-c2ccccc2)[nH]1
inactive: [4] 93 % of control | [5] 98 % of control | [6] 93 % of control

COC(=O)C(N)C(C)C (stereo not drawn)
inactive: dose: 25.0 mg/kg/injection, schedule: Q01DX009 (ip), vehicle: water 100 % of control | dose: 25.0 mg/kg/injection, schedule: Q04DX003 (ip), vehicle: water 106 % of control | dose: 50.0 mg/kg/injection, schedule: Q01DX009 (ip), vehicle: water 102 % of control | dose: 50.0 mg/kg/injection, schedule: Q04DX003 (ip), vehicle: water 104 % of control | dose: 100.0 mg/kg/injection, schedule: Q01DX009 (ip), vehicle: water 102 % of control | dose: 100.0 mg/kg/injection, schedule: Q04DX003 (ip), vehicle: water 114 % of control | dose: 200.0 mg/kg/injection, schedule: Q01DX009 (ip), vehicle: water 103 % of control | dose: 200.0 mg/kg/injection, schedule: Q04DX003 (ip), vehicle: water 101 % of control | dose: 400.0 mg/kg/injection, schedule: Q01DX009 (ip), vehicle: water 100 % of control | dose: 400.0 mg/kg/injection, schedule: Q04DX003 (ip), vehicle: water 104 % of control

ClC1(Cl)C2CCCOC21 (stereo not drawn)
inactive: dose: 100.0 mg/kg/injection, schedule: Q01DX009 (ip), vehicle: Klucel (hydroxypropylcellulose) (HPC) 97 % of control | dose: 200.0 mg/kg/injection, schedule: Q01DX009 (ip), vehicle: Klucel (hydroxypropylcellulose) (HPC) 100 % of control | dose: 400.0 mg/kg/injection, schedule: Q01DX009 (ip), vehicle: Klucel (hydroxypropylcellulose) (HPC) 98 % of control

Cc1noc(NC(=O)Nc2ccc(Cl)cc2Cl)c1C
inactive: dose: 12.5 mg/kg/injection, schedule: Q01DX009 (ip), vehicle: saline with Tween-80 86 % of control | dose: 25.0 mg/kg/injection, schedule: Q01DX009 (ip), vehicle: saline with Tween-80 89 % of control | dose: 50.0 mg/kg/injection, schedule: Q01DX009 (ip), vehicle: saline with Tween-80 91 % of control | [1] 91 % of control | [7] 87 % of control

C[P+]1(CCc2ccc(Cl)cc2)CC=CC1
inactive: dose: 25.0 mg/kg/injection, schedule: Q04DX003 (ip), vehicle: saline 93 % of control | dose: 50.0 mg/kg/injection, schedule: Q04DX003 (ip), vehicle: saline 103 % of control | [3] 96 % of control and 88 % of control

CCC1C/C(=C\NC(N)=O)C(=O)O1 (stereo not drawn)
inactive: [1] 96 % of control | [4] 96 % of control | [7] 100 % of control | [5] 104 % of control | [2] 100 % of control | [6] 101 % of control

Reference: PubChem BioAssay AID248 (DTP/NCI, 2004)
